Key:
Type in all cases: cell-based
[1] = system: Wnt activity (Sp5-Luc reporter, SW480 colon carcinoma cells); assay: Wnt activity screening assay: Sp5-Luc reporter gene assay in SW480 cells; conditions: Homo sapiens, SW480 cells, overnight incubation
Description: The screening assay for Wnt activity is described as follows. Reporter cell lines can be generated by stably transducing cancer cell lines (e.g., colon cancer) or primary cells (e.g., IEC-6 intestinal cells) with a lentiviral construct that includes a Wnt-responsive promoter driving expression of the firefly luciferase gene.
SW480 colon carcinoma cells were transduced with a lentiviral vector expressing luciferase with a human Sp5 promoter consisting of a sequence of eight TCF/LEF binding sites. SW480 cells stably expressing the Sp5-Luc reporter gene and a hygromycin resistance gene were selected by treatment with 150 μg/mL of hygromycin for 7 days. These stably transduced SW480 cells were expanded in cell culture and used for all further screening activities. Each compound was dissolved in DMSO as a 10 mM stock and used to prepare compound source plates. Serial dilution (1:3, 10-point dose-response curves starting from 10 μM) and compound transfer was performed using the ECHO 550 (Labcyte, Sunnyvale, Calif.) into 384-well white solid bottom assay plates (Greiner Bio-One) with appropriate DMSO backfill for a final DMSO concentration of 0.1%. For Sp5-Luc reporter gene assays, the cells were plated at 4,000 cells/well in 384-well plates with medium containing 1% fetal bovine serum and incubated overnight at 37° C. and 5% CO2. Following incubation, 20 μl of BrightGlo luminescence reagent (Promega) was added to each well of the 384-well assay plates. The plates were placed on an orbital shaker for 2 min and then luminescence was quantified using the Envision (Perkin Elmer) plate reader. Readings were normalized to DMSO only treated cells, and normalized activities were utilized for EC50 calculations using the dose-response log (inhibitor) vs. response -variable slope (four parameters) nonlinear regression feature available in GraphPad Prism 5.0 (or Dotmatics). For EC50 of >10 μM, the percent inhibition at 10 μM is provided.

SW480 colon cancer cells = assay: Cell viability assay (CellTiter-Blue); conditions: Homo sapiens, 96 h; SW480 cell viability, four days, CellTiter-Blue
Procedure: Representative compounds were screened using the following assay procedure to assess the effect on cell viability as described below.
Each compound was dissolved in DMSO as a 10 mM stock and used to prepare compound source plates. Serial dilution (1:3, 8-point dose-response curves from 10 μM to 0.0045 μM) and compound transfer was performed using the ECHO 550 (Labcyte, Sunnyvale, Calif.) into 96-well clear bottom, black-walled plates (Corning-Costar).
Approximately 2×10^3 SW480 colon cancer cells were seeded into each well and allowed to incubate in the presence or absence of compound for four days at 37° C./5% CO2. Eight replicates of DMSO-treated cells served as controls and cells treated with compound were performed in duplicate.
After incubation, 20 μL of CellTiter-Blue (Promega) was added to each well allowed to incubate for approximately 3 hours. This reagent was a buffered solution which contains resazurin, metabolically active cells were able to reduce rezarurin (blue) into resorufin (pink) which was highly fluorescent. This measured fluorescence was used as a readout for cell viability.
After incubation, the plates were read at Ex 560 nm Em 590 nm (Cytation 3, BioTek). Dose-response curves were generated and EC50 concentration values were calculated using non-linear regression curve fit in the GraphPad Prism (San Diego, Calif.) or Dotmatics' Studies Software (Bishops Stortford, UK). For EC50 of >10 μM, the percent inhibition at 10 μM is provided.

[2] = system: primary human fibroblasts derived from IPF patients (LL29 cells); assay: Inhibition of the fibrotic process: αSMA staining in TGF-β1 treated fibroblasts; conditions: Fibroblast, 96 h, LL29 cells, TGF-β1 20 ng/mL, 4 days, % αSMA positive cells
Description: Representative compounds were screened using primary human fibroblasts (derived from IPF patients) treated with TGF-β1 to determine their ability to inhibit the fibrotic process.
Human Fibroblast Cell Culture: Primary human fibroblasts derived from IPF patients (LL29 cells) [^1Xiaoqiu Liu, et. al., “Fibrotic Lung Fibroblasts Show Blunted Inhibition by cAMP Due to Deficient cAMP Response Element-Binding Protein Phosphorylation”, Journal of Pharmacology and Experimental Therapeutics (2005), 315(2), 678-687; ^2Watts, K. L., et. al., “RhoA signaling modulates cyclin D1 expression in human lung fibroblasts; implications for idiopathic pulmonary fibrosis”, Respiratory Research (2006), 7(1), 88] were obtained from American Type Culture Collection (ATCC) and expanded in F12 medium supplemented with 15% Fetal Bovine Serum and Penicillin/Streptomycin.
Compound Screening: Each compound was dissolved in DMSO as a 10 mM stock and used to prepare compound source plates. Serial dilution (1:2, 11-point dose-response curves from 10 μM to […]) and compound transfer was performed using the ECHO 550 (Labcyte, Sunnyvale, Calif.) into 384-well clear bottom assay plates (Greiner Bio-One) with appropriate DMSO backfill for a final DMSO concentration of 0.1%. LL29 cells are plated at 1,500 cells/well in 80 μL/well F12 medium supplemented with 1% Fetal Bovine Serum. One hour after addition of the cells, TGF-β1 (Peprotech; 20 ng/mL) was added to the plates to induce fibrosis (ref. 1 and 2 above). Wells treated with TGF-β1 and containing DMSO were used as controls. Cells were incubated at 37° C. and 5% CO2 for 4 days. Following incubation for 4 days, SYTOX green nucleic acid stain (Life Technologies [Thermo Fisher Scientific]) was added to the wells at a final concentration of 1 μM and incubated at room temperature for 30 min. Cells were then fixed using 4% formaldehyde (Electron Microscopy Sciences), washed 3 times with PBS followed by blocking and permeabilization using 3% Bovine Serum Albumin (BSA; Sigma) and 0.3% Triton X-100 (Sigma) in PBS. Cells were then stained with antibody specific to α-smooth muscle actin (αSMA; Abcam) (ref. 1 and 2 above) in 3% Bovine Serum Albumin (BSA; Sigma) and 0.3% Triton X-100 (Sigma) in PBS, and incubated overnight at 4° C. Cells were then washed 3 times with PBS, followed by incubation with Alexa Flor-647 conjugated secondary antibody (Life Technologies [Thermo Fisher Scientific]) and DAPI at room temperature for 1 hour. Cells were then washed 3 times with PBS and plates were sealed for imaging. αSMA staining was imaged by excitation at 630 nm and emission at 665 nm and quantified using the Compartmental Analysis program on the CellInsight CX5 (Thermo Scientific). Dead or apoptotic cells were excluded from analysis based on positive SYTOX green staining. % of total cells positive for αSMA were counted in each well and normalized to the average of 11 wells treated with TGF-β1 on the same plate using Dotmatics' Studies Software. The normalized averages (fold change over untreated) of 3 replicate wells for each compound concentration were used to create dose-responses curves and EC50 values were calculated using non-linear regression curve fit in the Dotmatics' Studies Software. For EC50 of >10 μM, the percent inhibition at 10 μM is provided.

IL-6 (THP-1 cells) = assay: IL-6 inhibition in LPS-stimulated THP-1 cells (HTRF); conditions: Homo sapiens; THP-1 cells, LPS 500 ng/mL, 22 hours, IL6 HTRF
Procedure: Human Monocyte Cell Culture: Human monocyte cell line (THP-1 cells; Catalog # TIB-202, ATCC, Manassas, Va.) were cultured in Roswell Park Memorial Institute (RPMI) 1640 Medium (Catalog #21870-100, Buffalo, N.Y.) with 1% L-glutamine, 1% HEPES, 1% Sodium Pyruvate, 2% Sodium Bicarbonate supplemented with 100 units/mL penicillin, 50 μg/mL streptomycin, 2-mercaptoethanol (0.05 mM) [basal medium] and 10% fetal bovine serum (Catalog #16140089, Life Technologies, Carlsbad, Calif.) at 37° C. and 5% CO2.
Compound Screening: THP-1 cells were cultured in basal media with 1% FBS for 24 hours before the start of the assay. Each compound was dissolved in DMSO as a 10 mM stock and used to prepare compound source plates. Serial dilution (1:3, 10-point dose-response curves starting from 10 μM) and compound transfer was performed using the ECHO 550 (Labcyte, Sunnyvale, Calif.) into 384-well white low volume assay plates (Greiner Bio-One) with appropriate DMSO backfill for a final DMSO concentration of 0.1%. THP-1 cells were plated at 5000 cells/well in the 384-well plates and incubated at 37° C. for 2 h. 500 ng/mL of LPS was added after 2 hours and cells were incubated for another 22 hours at 37° C. Plates were spun in a centrifuge for 1 minute at […] and a mixture of anti-IL6 XL665, and anti-IL6 Cryptate diluted in reconstitution buffer (Cisbio Inc.) was added to each well. Following incubation for 3 hrs at room temperature, Homogeneous Time-Resolved Fluorescence (HTRF) was measured using the Envision (Perkin Elmer) at 665 nm and […]. The ratio of fluorescence at 665 nm to 620 nm was used as a readout for IL6 quantification. All samples were processed in duplicate. Readings were normalized to DMSO treated cells and normalized activities were utilized for EC50 calculations using the dose-response log (inhibitor) vs. response —variable slope (four parameters) nonlinear regression feature available in GraphPad Prism 5.0 (or Dotmatics). For EC50 of >10 μM, the percent inhibition at 10 μM is provided.

| EC50 [1] [nM] | EC50 (SW480 colon cancer cells) [nM] | EC50 (IL-6 (THP-1 cells)) [nM] | Compound | EC50 [2] [nM] |
| --- | --- | --- | --- | --- |
| 1500 | 1940 | 9 | CN(C)CCNc1cc(F)cc(-c2ccnc3[nH]c(-c4n[nH]c5ccc(-c6cncc(NC(=O)c7ccccc7)c6)nc45)cc23)c1 [Compound 459, N-(5-(3-(4-(3-((2-(Dimethylamino)ethyl)amino)-5-fluorophenyl)-1H-pyrrolo [2,3-b]pyridin-2-yl)-1H-pyrazolo[4,3-b]pyridin-5-yl)pyridin-3-yl)benzamide] | 738 |
| 1340 | 4270 | 1350 | CC(C)Nc1cncc(-c2ccc3[nH]nc(-c4cc5c(-c6cccs6)ccnc5[nH]4)c3n2)c1 [Compound 348, N-Isopropyl-5-(3-(4-(thiophen-2-yl)-1H-pyrrolo[2,3-b]pyridin-2-yl)-1H-pyrazolo[4,3-b]pyridin-5-yl)pyridin-3-amine] | 994 |
